Data reported in patent US20240277743A1, “RESTORING PHYSIOLOGY WITH SMALL MOLECULE MIMICS OF MISSING PROTEINS” (The Board of Trustees Of The University Of Illinois, priority 2014, published 2024).

Assays:
[1] = test system: small molecule-rescued trk1Δtrk2Δ cells versus wild type; test: Probing sensitivities to known chemical inhibitors assay; assay type: cell-based, Saccharomyces cerevisiae; conditions: for sensitivity of AmB-rescued trk1Δtrk2Δ cells versus AmB-treated wild type to the inhibitor: AmB rescue, OD600 after 24 hours, FIGS. 3B-3D; for optimum rescue concentration for trk1Δtrk2Δ cells: FIG. 3E legend
Protocol: Probing sensitivities to known chemical inhibitors assay. Overnight cultures were grown as described in the MIC assay. Prior to harvesting cells, small molecules AmB, nystatin A1 (Riedel-de-Haen), candicidin (TOKU-E), or mepartricin (Santa Cruz Biotechnology) and chemical inhibitors nocodazole (Sigma-Aldrich), ebselen (Cayman Chemical), or bafilomycin BI (Santa Cruz Biotechnology were prepared as stock solutions in DMSO. Saturated cell cultures were centrifuged for 5 minutes at 1000×g. The supernatant was poured off, and cells were resuspended in sterile MilliQ water. Cells were centrifuged again, and supernatant was poured off. The wash step was repeated. The supernatant was poured off, and cells were resuspended in normal potassium YPAD. Cells were diluted with normal potassium YPAD to an OD600 of 0.01. Next, an appropriate volume of AmB, nystatin A1, candicidin, or mepartricin was added to give a final rescuing concentration of 125 nM, 1000 nM, 8 nM, and 8 nM, respectively. A control was prepared by adding the corresponding volume of DMSO to trk1Δtrk2Δ cells. 195 μL of WT+small molecule, 195 μL of trk1Δtrk2Δ+small molecule, and 195 μL of trk1Δtrk2Δ+DMSO were added to a 96 well plate. Next, 5 μL of DMSO or chemical inhibitor was added to each well, with each concentration tested in triplicate for both WT and trk1Δtrk2Δ . The plate was covered and incubated at 30° C. for 24 hours. A BioTek Synergy H1 Hybrid Reader was used to measure the OD600. Utilizing GraphPad PRISM, data were fitted by nonlinear regression, inhibition dose response, variable slope (four parameters) to yield EC50 values with SEM. For statistical analysis, EC50 values from the two treatment groups were compared by unpaired t-test.

[2] = test system: CuFi-1 epithelial monolayers (CFTR-deficient human lung epithelia); test: Airway surface liquid (ASL) height studies by confocal fluorescence microscopy; assay type: cell-based
Protocol: Human cell lines and growth conditions. NuLi and CuFi-1 cells were cultured at the air-liquid interface as previously described, using a 1:1 mixture of DMEM: Ham's F-12 supplemented with 2% v/v Ultroser G (Crescent Chemical). Zabner, J. et al. Am. J. Physiol. Lung Cell. Mol. Physiol. 284, […]-[…] (2003). The membrane supports used were Millicell 0.4 μm PCF inserts (Millipore PIHP01250) for Ussing chamber studies, Corning Costar 0.4 μm Transwell Clear Polyester Membrane inserts (Corning 3470) for rotational mucus transport studies, and Millicell 1.0 μm PCF inserts (Millipore PIRP15R48) for ASL studies. These membranes were allowed to mature at an air-liquid interface for a minimum of 14 days to reach full differentiation. Airway surface liquid (ASL) height studies. ASL height was studied using an established fluorescent dye assay. Worthington, E. N. et al. Methods Mol. Biol. 742, 77-92 (2011); Myerburg. M. M. et al. Am. J. Respir. Cell. Mol. Biol. 42, 676-684 (2010). Mature, differentiated membranes were grown on Millicell […] polyethylene terephthalate hanging cell culture inserts. Wild type (NuLi) lung epithelia were treated with perfluorocarbon (FC-72) vehicle, and CuFi epithelia were treated with vehicle or 500 nM AmB and incubated for 24 hours at 37° ° C. On the day of imaging. 2.5 μL of a 70 kDa Texas Red-dextran conjugate (Molecular Probes) solution in PBS was added to the apical side of the membranes, followed by 100 μL of FC-770 to prevent evaporation. These were placed on 100 μL of PBS on a 10 mm glass bottom Fluorodish for imaging (World Precision Instruments). Membranes were imaged immediately after dye addition and again at 24 hours to examine dye absorption. Three Z-stack images per membrane in biological n=6 were taken on an Zeiss LSM700 confocal microscope at 40× oil immersion. These images were analyzed using ImageJ to determine the area of fluorescence in the left hand 200-micron width of each image. Images were converted to 8-bit, Gaussian Blur was applied, and made binary. The parameters for Analyze Particles were particles from 1-Infinity μm^2 in size and from 0%-100% circularity.

trk1Δtrk2Δ yeast = test: Functional complementation of a protein with a small molecule assay (rescue broth microdilution); assay type: cell-based, Saccharomyces cerevisiae; conditions: for restoration of trk1Δtrk2Δ cell growth by ion transporting natural products: FIG. 3A
From the text: Broth microdilution minimum inhibitory concentration (MIC) assay. The protocol for the MIC broth microdilution assay was adapted from the Clinical and Laboratory Standards Institute document M27-A2 and performed as previously described. Gray, K. C. et. al. Proc. Natl. Acad. Sci. U.S.A. 109, 2234-2239 (2012); Palacios, D. S. et al. J. Am. Chem. Soc. 129, 13804-13805 (2007).
Functional complementation of a protein with a small molecule assay. The protocol for the rescue broth microdilution assay was conducted as described in the MIC assay above with the following additions: trk1atrk2Δ yeast were grown in high potassium (100 mM) YPAD liquid media overnight and transferred to normal potassium YPAD liquid media containing vehicle or the indicated concentration of AmB.

[3] = test system: AmB ion channel in trk1Δtrk2Δ cells; conditions: FIG. 2E
Protocol: Tetraethylammonium block assay. The protocol for the tetraethylammonium block assay was conducted as described in the functional complementation assay above with the addition of 125 nM AmB and the indicated concentration of tetraethylammonium to the normal potassium YPAD media and the indicated concentration of tetraethylammonium to the high potassium (100 mM) YPAD media.

yeast = conditions: cited from earlier work
trk1Δtrk2Δ cells = test: 86Rb+ uptake assay; assay type: cell-based, Saccharomyces cerevisiae; conditions: 3 μM; FIG. 2F
Protocol: ^86Rb^+ uptake assay. The procedure for 86Rb uptake was adapted from Mulet, J. M. et al. Mol. Cell. Biol. 19, 3328-3337 (1999). Overnight yeast cultures were grown as described above. The supernatant was poured off, and the cells were resuspended in sterile water. This wash was repeated two more times. The cells were then resuspended in 40 mL of the potassium starvation/uptake buffer (50 mM succinic acid, 2% glucose, adjusted to pH 5.5 with Tris). After 3 hour incubation in the potassium starvation buffer, cells were centrifuged and washed twice with sterile water. Cells were resuspended in 1 mL of the potassium starvation/uptake buffer. Cell concentration was determined using an INCYTO®; Neubauer disposable hemocytometer, and wild type S. cerevisiae and trk1Δtrk2Δ cells were diluted to the same cell density. 700 μL of the yeast suspension was added to a 1.5 mL Eppendorf tube. After a 5 minute pre-incubation in the potassium starvation/uptake medium, AmB or C35deOAmB was added (final concentration 3 μM) as a DMSO solution. ^86RbCl (1.1 μCi) was then added to the reaction mixtures. Reaction mixtures were vortexed to ensure a homogeneous solution. […] Moist filters were transferred to plastic vials for measuring radioactivity. Radioactivity was monitored using a Perkin Elmer Wizard automatic gamma counter. […]

CO/C1=C\C(C)=C\[C@@H](C)[C@@H](O)[C@@H](C)C/C(C)=C/C=C/[C@H](OC)[C@@H]([C@@H](C)[C@@H](O)[C@H](C)[C@@]2(O)C[C@@H](O)[C@H](C)[C@@H](C(C)C)O2)OC1=O [bafilomycin]
sensitivity of AmB-rescued trk1Δtrk2Δ cells versus AmB-treated wild type to the inhibitor [1]: exceptionally sensitive

CCCCNc1cc(C(=O)O)cc(S(N)(=O)=O)c1Oc1ccccc1 [bumetanide]
effect on AmB-mediated ASL restoration ([2]; basolateral addition, inhibits NKCC, FIG. 5D): blocked

COC(=O)Nc1nc2ccc(C(=O)c3cccs3)cc2[nH]1 [nocodazole]
sensitivity of AmB-rescued trk1Δtrk2Δ cells versus AmB-treated wild type to the inhibitor [1]: equally sensitive

C[C@@H]1[C@H](O)[C@@H](C)/C=C/C=C/CC/C=C/C=C/C=C/C=C/C(O[C@H]2O[C@H](C)[C@@H](O)[C@H](N)[C@@H]2O)CC2O[C@](O)(CC(O)C(O)CCC(O)CC(O)CC(O)CC(=O)O[C@H]1C)CC(O)C2C(=O)O (stereo partly drawn) [nystatin]
restoration of trk1Δtrk2Δ cell growth by ion transporting natural products (trk1Δtrk2Δ yeast): Vigorous restoration | optimum rescue concentration for trk1Δtrk2Δ cells [1]: 1 µM

CC[N+](CC)(CC)CC [tetraethylammonium]
effect on functional complementation observed with AmB ([3]; 125 nM AmB, normal potassium (10 mM KCl), dose-dependent): inhibited the functional complementation | general toxicity to trk1Δtrk2Δ cells ([3]; permissive conditions (100 mM KCl)): without causing general toxicity

C35-deoxy amphotericin B [C35deOAmB]
restoration of growth in trk1Δtrk2Δ cells (trk1Δtrk2Δ yeast; any tested concentration, FIG. 2D): failed to restore growth | ASL height of CuFi-1 epithelia, compound added apically ([2]; 500 nM AmB, 24 hours, FIGS. 5A, 5B): no increase in ASL height | fungicidal activity (yeast): potent fungicidal activity | 86Rb+ uptake in trk1Δtrk2Δ cells (trk1Δtrk2Δ cells): no uptake

candicidin
restoration of trk1Δtrk2Δ cell growth by ion transporting natural products (trk1Δtrk2Δ yeast): Vigorous restoration | optimum rescue concentration for trk1Δtrk2Δ cells [1]: 0.008 µM

mepartricin
restoration of trk1Δtrk2Δ cell growth by ion transporting natural products (trk1Δtrk2Δ yeast): Vigorous restoration | optimum rescue concentration for trk1Δtrk2Δ cells [1]: 0.008 µM
